Literature values in the CATMoS acute toxicity set (Mansouri et al. 2021).

Experiment: rat acute oral toxicity
Settings: in vivo

First: O=c1oc2ccccc2c(O)c1C(CC(O)c1ccc(-c2ccc(Br)cc2)cc1)c1ccccc1 (stereo not given)
Second: O=C(c1cc2ccccc2o1)N1CCN(Cc2ccccc2)CC1
The LD50 of the first is 5200-fold lower: 0.49 mg/kg for the first, 2530 mg/kg for the second.

Going from Fc1cc(F)c2nc(C(F)(F)F)[nH]c2c1 to CC(C)(C)c1ccc2nc(C(F)(F)F)[nH]c2c1, the LD50 rises from 2.49 mg/kg to 35 mg/kg (14-fold).

Compared with CCCCC(O)C(N)CC (stereo not given), CCCCCC(C)=O is 3-fold higher in LD50: 550 mg/kg for the first, 1670 mg/kg for the second.

Compared with CCCC(=O)c1ccc2c(c1)N(CCCN(C)C)c1ccccc1S2, CCC(=O)c1ccc2c(c1)N(CCCN1CCN(C)CC1)c1ccccc1S2 is 2-fold higher in LD50: 300 mg/kg for the first, 600 mg/kg for the second.

First: CC[C@@H](C(=O)O)[C@@H]1O[C@@H]([C@@H](C)[C@H](O)[C@H](C)C(=O)[C@H](CC)[C@H]2O[C@]3(C=C[C@@H](O)[C@]4(CC[C@@](C)([C@H]5CC[C@](O)(CC)[C@H](C)O5)O4)O3)[C@H](C)C[C@@H]2C)[C@@H](C)C[C@@H]1C
Second: O=C(O)C1CCc2cc(C3CCCCC3)c(O)cc21 (stereo not given)
The LD50 of the first is 24-fold lower: 18.5 mg/kg for the first, 450 mg/kg for the second.

CC(C)=CCl and CCC(C)=CCCC(C)=O are within 1.5-fold of each other in LD50: 4460 mg/kg for the first, 3570 mg/kg for the second.

Compared with CC(C)(C)c1cc(Cl)cc(Sc2cc(Cl)cc(C(C)(C)C)c2O)c1O, O=C(Nc1ccc(Cl)cc1)c1cc(Cl)cc(-c2ccc(Cl)cc2)c1O is 2.2-fold lower in LD50: 6100 mg/kg for the first, 2810 mg/kg for the second.

First: O=C1CN2CCOC2(c2ccccc2Cl)c2cc(Cl)ccc2N1 (stereo not given)
Second: O=C(O)Cc1ccc2c(c1)C(=O)c1ccccc1CN2
The LD50 of the first is 2.2-fold higher: 1780 mg/kg for the first, 810 mg/kg for the second.

CC(C(=O)O)c1ccc(N2CC=CC2)c(Cl)c1 (stereo not given) and CC(C(=O)O)c1ccc(N2CC3=C(CC=CC3)C2=O)cc1 (stereo not given) are within 1.5-fold of each other in LD50: 351 mg/kg for the first, 328 mg/kg for the second.

Fc1ccccc1 and Oc1ccc(Nc2ccccc2)cc1 are within 1.5-fold of each other in LD50: 4400 mg/kg for the first, 3300 mg/kg for the second.

NCCCNCCSP(=O)(O)O and CC(=O)OCCCC(=O)CBr are within 1.5-fold of each other in LD50: 826 mg/kg for the first, 600 mg/kg for the second.

First: CC(CCc1ccccc1)NCC(O)c1ccc(O)c(C(N)=O)c1 (stereo not given)
Second: CCOC(=O)C1(c2ccccc2)CCN(CCc2ccc(N)cc2)CC1
The LD50 of the first is 12-fold higher: 2110 mg/kg for the first, 175 mg/kg for the second.

First: Clc1cccc(Cl)c1N=C1NCCN1
Second: CCOC(C1=NCCCN1)c1c(Cl)cccc1Cl (stereo not given)
The LD50 of the first is 5-fold lower: 126 mg/kg for the first, 625 mg/kg for the second.

First: C=CC(=O)OCCOCCOC(=O)C=C
Second: CCCCC(CC)(COC(N)=O)COC(N)=O
The LD50 of the first is 2.6-fold lower: 250 mg/kg for the first, 662 mg/kg for the second.

Cc1ccc(S(=O)(=O)NC(=O)NN2CC3CCCC3C2)cc1 (stereo not given) and CS(=O)(=O)c1ccc(O)cc1 are within 1.5-fold of each other in LD50: 3000 mg/kg for the first, 3160 mg/kg for the second.

Compared with CN(C)c1ccccc1CS(=O)c1nc2ccccc2[nH]1 (stereo not given), CCc1nc(N)nc(N)c1-c1ccccc1 is 10-fold lower in LD50: 1300 mg/kg for the first, 126 mg/kg for the second.

First: NC1=NC(C(F)(F)F)(C(F)(F)F)NC1(C(F)(F)F)C(F)(F)F
Second: O=S(=O)(F)C(F)(F)C(F)(F)C(F)(F)C(F)(F)C(F)(F)C(F)(F)C(F)(F)C(F)(F)F
The LD50 of the first is 8.1-fold lower: 19 mg/kg for the first, 154 mg/kg for the second.

Compared with O=C1CC2(CCCC2)CC(=O)N1CCCCN1CCN(c2ncccn2)CC1, Cc1cncc(CN2CCC(=C3c4ccc(Cl)cc4CCc4cccnc43)CC2)c1 is 5.1-fold higher in LD50: 196 mg/kg for the first, 1000 mg/kg for the second.

First: CCCN=C(NCCC)C(OCC)c1ccc(Cl)cc1 (stereo not given)
Second: CCN(CC)CCC(CC=C(C)C)(C(N)=O)c1cccc2ccccc12 (stereo not given)
The LD50 of the first is 1.5-fold lower: 47 mg/kg for the first, 71 mg/kg for the second.

Compared with CC1(C)OCC(COC(=O)Cc2ccc3c(c2)OCc2ccccc2C3=O)O1 (stereo not given), CCOC(=O)C1OC1(C)c1ccccc1 (stereo not given) is 59-fold higher in LD50: 92 mg/kg for the first, 5470 mg/kg for the second.

Compared with CC1=CC(=O)NS(=O)(=O)O1, Cc1cccc(C(=O)Cl)c1 is 2.2-fold lower in LD50: 7430 mg/kg for the first, 3440 mg/kg for the second.

Compared with CC(=O)Oc1c([N+](=O)[O-])cc([N+](=O)[O-])cc1C(C)(C)C, CNC(=O)Oc1cccc2c1OC(C)(C)C2=O is 4.8-fold higher in LD50: 62 mg/kg for the first, 295 mg/kg for the second.

Compared with C[Si]1(C)N[Si](C)(C)N[Si](C)(C)N1, COP(=O)(OC)SC is 33-fold lower in LD50: 500 mg/kg for the first, 15 mg/kg for the second.

Compared with N#CCCC#N, N#CC(C#N)=C(C#N)C#N is 90-fold lower in LD50: 450 mg/kg for the first, 5 mg/kg for the second.

First: CP(=O)(Oc1ccc([N+](=O)[O-])cc1)c1ccccc1 (stereo not given)
Second: C=CCOc1ccccc1OC(=O)NC
The LD50 of the first is 16-fold lower: 12.5 mg/kg for the first, 200 mg/kg for the second.

Compared with C=C1C[C@@H]1C[C@H](N)C(=O)O, CC(=O)SCc1cnc(C)c(O)c1CSC(C)=O is 8.9-fold higher in LD50: 98 mg/kg for the first, 870 mg/kg for the second.

Compared with CCc1ccc(CCO)nc1, COc1ccc(CC2CNC(=O)N2)cc1OC1CCCC1 (stereo not given) is 7.2-fold lower in LD50: 4290 mg/kg for the first, 600 mg/kg for the second.

In the case of COS(C)(=O)=O, the LD50 is given as 225 mg/kg.
